Experimental data taken from ChEMBL document CHEMBL1156275, “Thioether acetamides as P3 binding elements for tetrahydropyrido-pyrazole cathepsin S inhibitors” (Bioorg Med Chem Lett, 2010).

Legend:
Cathepsin S [1] = biological target: T1, Cathepsin S (Homo sapiens, UniProt P25774); test: Inhibition of cathepsin S in human JY cells assessed as accumulation of invariant chain p10li after 24 hrs by Western blot analysis; format: cell-based
Cathepsin S [2] = biological target: T1, Cathepsin S; test: Inhibition of human recombinant cathepsin S expressed in baculovirus expression sytem after 15 mins by FRET assay

T1 sequence (P25774 whole entry): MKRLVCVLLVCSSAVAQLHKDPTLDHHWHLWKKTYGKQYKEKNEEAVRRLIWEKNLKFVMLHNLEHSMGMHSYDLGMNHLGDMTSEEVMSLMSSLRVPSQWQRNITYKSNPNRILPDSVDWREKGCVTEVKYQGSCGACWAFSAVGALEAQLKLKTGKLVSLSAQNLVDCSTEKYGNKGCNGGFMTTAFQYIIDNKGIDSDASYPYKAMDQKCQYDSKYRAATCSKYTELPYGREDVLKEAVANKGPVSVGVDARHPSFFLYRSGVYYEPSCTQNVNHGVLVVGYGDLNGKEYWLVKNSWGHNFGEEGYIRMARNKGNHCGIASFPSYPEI

| IC50 (Cathepsin S [1]) [nM] | IC50 (Cathepsin S [2]) [nM] | SMILES |
| --- | --- | --- |
| > 10000 | – | CS(=O)(=O)N1CCc2c(c(-c3ccc(C(F)(F)F)c(SCCNC(=O)Cc4ccccc4)c3)nn2CC(O)CN2CCC(N3CCCC3=O)CC2)C1 (stereo unspecified) |
| 340 | – | CS(=O)(=O)N1CCc2c(c(-c3ccc(C(F)(F)F)c(SCC(=O)N4CCC(CO)CC4)c3)nn2CCCN2CCC(N3CCCC3=O)CC2)C1 |
| 1970 | – | CS(=O)(=O)N1CCc2c(c(-c3ccc(C(F)(F)F)c(SCC(=O)N4CCCC4)c3)nn2CCCN2CCC(N3CCCC3=O)CC2)C1 |
| 40 | – | CS(=O)(=O)N1CCc2c(c(-c3ccc(C(F)(F)F)c(SCCN4CCCCC4)c3)nn2CCCN2CCC(N3CCCC3=O)CC2)C1 |
| – | 250 | CCN1CCc2c(c(-c3ccc(C(F)(F)F)c(SCC(=O)N4CCCC4)c3)nn2CC(O)CN2CCC(c3ccccn3)CC2)C1 (racemic) |
| 470 | 1 | CS(=O)(=O)N1CCc2c(c(-c3ccc(C(F)(F)F)c(SCC(=O)N4CCCC4)c3)nn2CC(O)CN2CCC(c3ccccn3)CC2)C1 (racemic) |
| 3130 | 10 | CS(=O)(=O)N1CCc2c(c(-c3ccc(C(F)(F)F)c(SCC(=O)N4CCOCC4)c3)nn2CC(O)CN2CCC(c3ccccc3F)CC2)C1 (racemic) |
| 190 | – | COc1ccccc1C1CCN(CC(O)Cn2nc(-c3ccc(C(F)(F)F)c(SCC(=O)N4CCOCC4)c3)c3c2CCN(S(C)(=O)=O)C3)CC1 (racemic) |
| 380 | – | CS(=O)(=O)N1CCc2c(c(-c3ccc(C(F)(F)F)c(SCC(=O)N4CCOCC4)c3)nn2CC(O)CN2CCC(c3ccccn3)CC2)C1 (racemic) |

Further lines, the compound ahead of its results:

| SMILES | IC50 (Cathepsin S [1]) [nM] | IC50 (Cathepsin S [2]) [nM] |
| --- | --- | --- |
| CS(=O)(=O)N1CCc2c(c(-c3ccc(C(F)(F)F)c(SCC(=O)N4CC[C@H](O)C4)c3)nn2CC(O)CN2CCC(c3ccccn3)CC2)C1 (stereo partly specified) | 30 | 7 |
| CS(=O)(=O)N1CCc2c(c(-c3ccc(C(F)(F)F)c(SCC(=O)N4CCCCC4)c3)nn2CC(O)CN2CCC(c3ccccn3)CC2)C1 (stereo unspecified) | 1540 | – |
| CS(=O)(=O)N1CCc2c(c(-c3ccc(C(F)(F)F)c(SCC(=O)N4CCCC4)c3)nn2CCCN2CCC(C(=O)N3CCCC3)CC2)C1 | 280 | 40 |
| CS(=O)(=O)N1CCc2c(c(-c3ccc(C(F)(F)F)c(SCC(=O)NCc4ccccc4)c3)nn2CCCN2CCC(N3CCCC3=O)CC2)C1 | 10000 | – |
| CN1CCN(C(=O)CSc2cc(-c3nn(CCCN4CCC(N5CCCC5=O)CC4)c4c3CN(S(C)(=O)=O)CC4)ccc2C(F)(F)F)CC1 | 110 | 740 |
| CS(=O)(=O)N1CCc2c(c(-c3ccc(C(F)(F)F)c(SCC(=O)N4CCCCC4)c3)nn2CCCN2CCC(N3CCCC3=O)CC2)C1 | 3920 | 70 |
| CS(=O)(=O)N1CCc2c(c(-c3ccc(C(F)(F)F)c(SCC(=O)N4CCOCC4)c3)nn2CCCN2CCC(N3CCCC3=O)CC2)C1 | 450 | 20 |
| CC1CCCN1C(=O)CSc1cc(-c2nn(CCCN3CCC(N4CCCC4=O)CC3)c3c2CN(S(C)(=O)=O)CC3)ccc1C(F)(F)F (stereo unspecified) | 6000 | – |
| CC1CCN(C(=O)CSc2cc(-c3nn(CCCN4CCC(N5CCCC5=O)CC4)c4c3CN(S(C)(=O)=O)CC4)ccc2C(F)(F)F)CC1 | 8000 | 210 |
| C[C@H]1CCCCN1CC(O)Cn1nc(-c2ccc(C(F)(F)F)c(SCC(=O)N3CCOCC3)c2)c2c1CCN(S(C)(=O)=O)C2 (mixture of isomers) | 10000 | 300 |
| CS(=O)(=O)N1CCc2c(c(-c3ccc(C(F)(F)F)c(SCC(=O)N4CC[C@@H](O)C4)c3)nn2CC(O)CN2CCC(c3ccccn3)CC2)C1 (mixture of isomers) | 30 | 7 |
| O=C(CSc1cc(-c2nn(CC(O)CN3CCC(c4ccccn4)CC3)c3c2CN(C(=O)CO)CC3)ccc1C(F)(F)F)N1CCOCC1 (racemic) | 160 | – |
| O=C(CSc1cc(-c2nn(CC(O)CN3CCC(c4ccccn4)CC3)c3c2CNCC3)ccc1C(F)(F)F)N1CCOCC1 (racemic) | 1680 | – |
| CS(=O)(=O)N1CCc2c(c(-c3ccc(C(F)(F)F)c(SCC(=O)N4CCC(O)C4)c3)nn2CCCN2CCC(N3CCCC3=O)CC2)C1 (racemic) | 520 | – |
| CC(=O)N1CCc2c(c(-c3ccc(C(F)(F)F)c(SCC(=O)N4CCCC4)c3)nn2CC(O)CN2CCC(C(C)(C)O)CC2)C1 (racemic) | 110 | – |
| CC(=O)N1CCc2c(c(-c3ccc(C(F)(F)F)c(SCC(=O)N4CCCC4)c3)nn2CC(O)CN2CCC(C)CC2)C1 (racemic) | 80 | 180 |
| COc1ccccc1C1CCN(CC(O)Cn2nc(-c3ccc(C(F)(F)F)c(SCC(=O)N4CCCC4)c3)c3c2CCNC3)CC1 (racemic) | 120 | – |
| COc1ccccc1C1CCN(CC(O)Cn2nc(-c3ccc(C(F)(F)F)c(SCC(=O)N4CCOCC4)c3)c3c2CCNC3)CC1 (racemic) | 1850 | 190 |
| COc1ccccc1C1CCN(CC(O)Cn2nc(-c3ccc(C(F)(F)F)c(SCC(=O)N4CCOCC4)c3)c3c2CCN(C(C)=O)C3)CC1 (racemic) | 900 | – |
| COc1ccccc1C1CCN(CC(O)Cn2nc(-c3ccc(C(F)(F)F)c(SCC(=O)N4CCOCC4)c3)c3c2CCN(C(=O)CO)C3)CC1 (racemic) | 480 | – |
